Laboratory results published in patent publication US12564590B2, “Combinations of menin inhibitors and CYP3A4 inhibitors and methods of use thereof” (Syndax Pharmaceuticals, Inc., priority 2020, dated 2026).

Experiments:
[1] = system: cells harboring MLLr fusions; experiment: activity in cells harboring MLLr fusions; type: cell-based
[2] = molecular target: T1, MLL1 binding pocket on menin (Homo sapiens, UniProt O00255); experiment: binding to the MLL1 binding pocket on menin
T1 sequence (O00255 1-610): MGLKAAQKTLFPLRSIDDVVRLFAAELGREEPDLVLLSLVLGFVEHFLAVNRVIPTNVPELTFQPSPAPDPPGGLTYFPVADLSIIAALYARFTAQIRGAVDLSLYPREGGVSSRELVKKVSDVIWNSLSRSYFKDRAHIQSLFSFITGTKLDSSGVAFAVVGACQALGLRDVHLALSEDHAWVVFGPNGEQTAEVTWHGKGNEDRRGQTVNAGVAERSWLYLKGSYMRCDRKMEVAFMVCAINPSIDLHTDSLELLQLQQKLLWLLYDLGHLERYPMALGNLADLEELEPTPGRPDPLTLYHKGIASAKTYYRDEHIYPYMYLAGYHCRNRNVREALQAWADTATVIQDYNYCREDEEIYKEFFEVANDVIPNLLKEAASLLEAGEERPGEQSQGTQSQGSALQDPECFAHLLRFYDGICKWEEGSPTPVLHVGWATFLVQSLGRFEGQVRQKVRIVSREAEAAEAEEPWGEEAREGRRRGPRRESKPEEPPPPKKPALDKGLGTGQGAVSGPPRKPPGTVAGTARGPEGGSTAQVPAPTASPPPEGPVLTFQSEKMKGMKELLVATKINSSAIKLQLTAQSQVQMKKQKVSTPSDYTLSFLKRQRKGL

[3] = system: leukemic xenograft models; experiment: leukemic xenograft / nonclinical survival models; type: in vivo; conditions: in combination with a CYP3A4 inhibitor; for survival benefit in nonclinical models: oral dosing
[4] = system: NPM1c mutant AML patient-derived xenograft models; conditions: orally active; cited from earlier work
NPM1c cells = conditions: leading to growth arrest, terminal differentiation and cell death; cited from earlier work

CC(C)N(C(=O)c1cc(F)ccc1Oc1cncnc1N1CC2(CCN(C[C@H]3CC[C@H](NS(C)(=O)=O)CC3)CC2)C1)C(C)C [Formula I, 5-fluoro-N,N-diisopropyl-2-((4-(7-(((1r,4r)-4-(methylsulfonamido)cyclohexyl)methyl)-2,7-diazaspiro[3.5]nonan-2-yl)pyrimidin-5-yl)oxy)benzamide]
activity across a range of cells harboring MLLr fusions [1]: displays activity | binding affinity to the MLL1 binding pocket on menin [2]: high affinity | activity in multiple leukemic xenograft models [3]: robust activity | survival benefit in nonclinical models [3]: profound survival benefit

CCN(C(=O)c1cc(F)ccc1Oc1cncnc1N1CC2(CCN(C[C@H]3CC[C@H](NS(=O)(=O)CC)CC3)CC2)C1)C(C)C [Formula II, N-ethyl-2-((4-(7-(((1r,4r)-4-(ethylsulfonamido)cyclohexyl)methyl)-2,7-diazaspiro[3.5]nonan-2-yl)pyrimidin-5-yl)oxy)-5-fluoro-N-isopropylbenzamide]
activity across a range of cells harboring MLLr fusions [1]: displays activity | binding affinity to the MLL1 binding pocket on menin [2]: high affinity | activity in multiple leukemic xenograft models [3]: robust activity | survival benefit in nonclinical models [3]: profound survival benefit

CNc1nc(NC2CCN(Cc3ccc4c(cc(C#N)n4C[C@H](C)N4CCN(S(C)(=O)=O)CC4)c3C)CC2)c2cc(CC(F)(F)F)sc2n1 [KO-539]
anti-leukemic activity [4]: robust anti-leukemic activity

Cc1c(CN2CCC(Nc3ncnc4sc(CC(F)(F)F)cc34)CC2)ccc2c1cc(C#N)n2Cc1cn[nH]c1 [MI-503]
effect on HOXA MEIS1 transcription program (NPM1c cells): suppress the HOXA MEIS1 transcription program
